Our source for the GI50 and IC50 values is patent publication US11008337B2, “Chiral diaryl macrocycles as modulators of protein kinases” (Turning Point Therapeutics, Inc., priority 2015, dated 2021).

Holding throughout (assay type): cell-based
In one experiment the target is T1, EML4-ALK Ba/F3 (Homo sapiens, UniProt Q9UM73).
T1 construct: fused on or other part: Q9HC35 (Echinoderm microtubule-associated protein-like 4)
In words: Cell proliferation assay, EML4-ALK Ba/F3 stable cell line (CellTiter-Glo). The note with it: Ba/F3-EML4-ALK wild type (variant 1) cells, 72 hours compound incubation; read-out: Cell Proliferation IC50 EML4-ALK Ba/F3. The text has this:
(§1) Creation of CD74-ROS1 and EML4-ALK Ba/F3 Stable Cell Lines and Cell Proliferation Assays.
(§2) The CD74-ROS1 wild-type gene and EML4-ALK wild-type gene (variant 1) were synthesized at GenScript and cloned into pCDH-CMV-MCS-EF1-Puro plasmid (System Biosciences, Inc). Ba/F3-CD74-ROS1 and Ba/F3-EML4-ALK wild type cell lines were generated by infecting Ba/F3 cells with lentivirus containing CD74-ROS1 wide-type and EML4-ALK wild type. Stable cell lines were selected by puromycin treatment, followed by IL-3 withdrawal. 3000 cells were seeded in 384 well white plate overnight before compound treatment. Cell proliferation was measured using CellTiter-Glo luciferase-based ATP detection assay (Promega) following the manufactures's protocol after 72 hours of various concentration of compound incubation. IC50 determinations were performed using GraphPad Prism software (GraphPad, Inc., San Diego, Calif.).
For orientation: ATP-based viability assays read luminescence as a measure of living cells.

The target of another experiment is T2, CD74-ROS1 Ba/F3 (Homo sapiens, UniProt P08922).
T2 construct: fused on or other part: P04233 (HLA class II histocompatibility antigen gamma chain)
T2 sequence (P08922 whole entry, change not shown, the tested form may be a part): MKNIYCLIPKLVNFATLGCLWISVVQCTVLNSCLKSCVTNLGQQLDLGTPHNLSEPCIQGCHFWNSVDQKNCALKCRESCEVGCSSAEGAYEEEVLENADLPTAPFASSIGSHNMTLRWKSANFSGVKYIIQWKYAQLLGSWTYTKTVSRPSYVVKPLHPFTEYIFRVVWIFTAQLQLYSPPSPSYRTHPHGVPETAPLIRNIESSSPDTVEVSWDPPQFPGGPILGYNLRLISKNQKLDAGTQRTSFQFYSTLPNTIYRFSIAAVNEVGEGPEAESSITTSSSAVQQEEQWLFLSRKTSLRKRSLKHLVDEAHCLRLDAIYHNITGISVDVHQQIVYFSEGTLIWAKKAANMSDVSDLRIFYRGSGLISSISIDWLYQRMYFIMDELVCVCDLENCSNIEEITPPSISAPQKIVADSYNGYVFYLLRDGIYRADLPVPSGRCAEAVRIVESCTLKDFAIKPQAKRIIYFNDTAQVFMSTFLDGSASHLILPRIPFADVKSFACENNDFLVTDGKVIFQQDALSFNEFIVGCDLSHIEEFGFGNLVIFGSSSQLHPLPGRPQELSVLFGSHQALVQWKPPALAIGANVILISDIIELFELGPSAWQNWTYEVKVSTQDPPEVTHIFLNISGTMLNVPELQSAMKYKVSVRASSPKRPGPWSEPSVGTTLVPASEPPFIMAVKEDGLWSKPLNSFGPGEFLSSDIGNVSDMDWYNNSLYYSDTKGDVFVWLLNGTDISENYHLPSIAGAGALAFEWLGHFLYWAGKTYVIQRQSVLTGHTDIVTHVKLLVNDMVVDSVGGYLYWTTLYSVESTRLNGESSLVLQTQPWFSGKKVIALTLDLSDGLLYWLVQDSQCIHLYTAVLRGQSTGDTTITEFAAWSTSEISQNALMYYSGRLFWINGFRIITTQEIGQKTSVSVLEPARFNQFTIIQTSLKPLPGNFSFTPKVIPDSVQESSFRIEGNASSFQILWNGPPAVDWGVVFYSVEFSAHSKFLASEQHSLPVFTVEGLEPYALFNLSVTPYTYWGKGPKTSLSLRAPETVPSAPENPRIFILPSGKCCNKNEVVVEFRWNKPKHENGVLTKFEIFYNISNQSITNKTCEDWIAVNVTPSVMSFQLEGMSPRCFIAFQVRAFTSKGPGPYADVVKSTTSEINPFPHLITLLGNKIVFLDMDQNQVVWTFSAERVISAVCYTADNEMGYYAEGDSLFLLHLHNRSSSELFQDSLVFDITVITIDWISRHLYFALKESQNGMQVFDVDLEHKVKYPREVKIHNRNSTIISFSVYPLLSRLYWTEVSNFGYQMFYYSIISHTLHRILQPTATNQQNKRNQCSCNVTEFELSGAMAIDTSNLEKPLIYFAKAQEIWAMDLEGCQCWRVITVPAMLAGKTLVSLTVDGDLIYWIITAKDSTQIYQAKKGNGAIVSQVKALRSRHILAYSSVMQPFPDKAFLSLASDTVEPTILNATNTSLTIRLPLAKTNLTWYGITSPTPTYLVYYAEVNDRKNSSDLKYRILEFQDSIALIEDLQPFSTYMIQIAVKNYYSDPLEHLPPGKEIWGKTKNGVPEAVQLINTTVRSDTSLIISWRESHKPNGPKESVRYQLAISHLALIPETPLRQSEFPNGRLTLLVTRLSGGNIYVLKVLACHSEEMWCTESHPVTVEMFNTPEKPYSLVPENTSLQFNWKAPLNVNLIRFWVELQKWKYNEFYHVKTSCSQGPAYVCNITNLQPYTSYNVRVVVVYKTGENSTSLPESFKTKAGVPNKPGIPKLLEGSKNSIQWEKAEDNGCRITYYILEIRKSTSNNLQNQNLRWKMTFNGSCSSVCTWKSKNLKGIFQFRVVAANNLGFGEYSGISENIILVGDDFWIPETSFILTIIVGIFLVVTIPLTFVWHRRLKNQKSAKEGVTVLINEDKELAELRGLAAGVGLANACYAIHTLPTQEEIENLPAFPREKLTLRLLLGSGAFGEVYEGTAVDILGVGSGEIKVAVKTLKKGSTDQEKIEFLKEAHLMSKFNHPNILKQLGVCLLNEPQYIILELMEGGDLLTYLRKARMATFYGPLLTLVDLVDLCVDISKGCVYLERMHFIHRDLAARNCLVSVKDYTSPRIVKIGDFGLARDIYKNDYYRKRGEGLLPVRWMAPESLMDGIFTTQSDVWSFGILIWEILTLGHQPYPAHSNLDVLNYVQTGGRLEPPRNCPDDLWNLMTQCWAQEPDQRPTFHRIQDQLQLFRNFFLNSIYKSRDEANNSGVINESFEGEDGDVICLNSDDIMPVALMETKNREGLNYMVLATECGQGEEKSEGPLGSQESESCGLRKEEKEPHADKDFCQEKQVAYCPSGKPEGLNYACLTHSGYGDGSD
The experiment can be described thus: Cell proliferation assay, CD74-ROS1 Ba/F3 stable cell line (CellTiter-Glo). The following applies: Ba/F3-CD74-ROS1 wild type cells, 72 hours compound incubation; read-out: Cell Proliferation IC50 CD74-ROS1 Ba/F3.
From the text: as §1, §2

For experiment [1], the system named is essential thrombocythemia cell line SET-2 cells (harboring endogenous JAK2 point mutation). The experiment can be described thus: Cell proliferation assay, SET-2 cells (CellTiter-Glo). The following applies: Homo sapiens, 72 hours incubation, read-out: Cell Proliferation IC50 SET2. As to the method: (§3) Cell Proliferation Assays.
(§4) Colorectal cell lines KM 12 (harboring endogenous TPM3-TRKA fusion gene) cells were cultured in DMEM medium, supplemented with 10% fetal bovine serum and 100 U/mL of penicillin/streptomycin. 5000 cells were seeded in 384 well white plate for 24 hours before compounds treatment. Cell proliferation was measured using CellTiter-Glo luciferase-based ATP detection assay (Promega) following the manufactures's protocol after 72 hours incubation. IC50 determinations were performed using GraphPad Prism software (GraphPad, Inc., San Diego, Calif.). Alternatively, essential thrombocythemia cell line SET-2 cells (harboring endogenous JAK2 V618F point mutation) or T cell lymphoma Karpas-299 cell line (harboring endogenous NPM-ALK fusion gene) were cultured in RPMI medium, supplemented with 10% fetal bovine serum and 100 U/mL of penicillin/streptomycin. 5000 cells were seeded in 384 well white plate for 24 hours before compounds treatment. Cell proliferation was measured using CellTiter-Glo luciferase-based ATP detection assay (Promega) following the manufactures's protocol after 72 hours incubation. IC50 determinations were performed using GraphPad Prism software (GraphPad, Inc., San Diego, Calif.).

In experiment [2] the test system is Colorectal cell lines KM 12 (harboring endogenous TPM3-TRKA fusion gene). The experiment can be described thus: Cell proliferation assay, KM12 cells (CellTiter-Glo). The following applies: Homo sapiens, 72 hours incubation. As to the method:
as §3
as §4, with “Alternatively, essential thrombocythemia cell line SET-2 cells (harboring endogenous JAK2 V618F point mutation) or T cell lymphoma Karpas-299 cell line (harboring endogenous NPM-ALK fusion gene) were cultured in RPMI medium, supplemented with 10% fetal bovine serum and 100 U/mL of penicillin/streptomycin.” left out

For experiment [3], the system named is T cell lymphoma Karpas-299 cell line (harboring endogenous NPM-ALK fusion gene). The experiment can be described thus: Cell proliferation assay, Karpas-299 cells (CellTiter-Glo). The following applies: Homo sapiens, 72 hours incubation. How it is done:
as §3, §4

T1 sequence (Q9UM73 whole entry, change not shown, the tested form may be a part): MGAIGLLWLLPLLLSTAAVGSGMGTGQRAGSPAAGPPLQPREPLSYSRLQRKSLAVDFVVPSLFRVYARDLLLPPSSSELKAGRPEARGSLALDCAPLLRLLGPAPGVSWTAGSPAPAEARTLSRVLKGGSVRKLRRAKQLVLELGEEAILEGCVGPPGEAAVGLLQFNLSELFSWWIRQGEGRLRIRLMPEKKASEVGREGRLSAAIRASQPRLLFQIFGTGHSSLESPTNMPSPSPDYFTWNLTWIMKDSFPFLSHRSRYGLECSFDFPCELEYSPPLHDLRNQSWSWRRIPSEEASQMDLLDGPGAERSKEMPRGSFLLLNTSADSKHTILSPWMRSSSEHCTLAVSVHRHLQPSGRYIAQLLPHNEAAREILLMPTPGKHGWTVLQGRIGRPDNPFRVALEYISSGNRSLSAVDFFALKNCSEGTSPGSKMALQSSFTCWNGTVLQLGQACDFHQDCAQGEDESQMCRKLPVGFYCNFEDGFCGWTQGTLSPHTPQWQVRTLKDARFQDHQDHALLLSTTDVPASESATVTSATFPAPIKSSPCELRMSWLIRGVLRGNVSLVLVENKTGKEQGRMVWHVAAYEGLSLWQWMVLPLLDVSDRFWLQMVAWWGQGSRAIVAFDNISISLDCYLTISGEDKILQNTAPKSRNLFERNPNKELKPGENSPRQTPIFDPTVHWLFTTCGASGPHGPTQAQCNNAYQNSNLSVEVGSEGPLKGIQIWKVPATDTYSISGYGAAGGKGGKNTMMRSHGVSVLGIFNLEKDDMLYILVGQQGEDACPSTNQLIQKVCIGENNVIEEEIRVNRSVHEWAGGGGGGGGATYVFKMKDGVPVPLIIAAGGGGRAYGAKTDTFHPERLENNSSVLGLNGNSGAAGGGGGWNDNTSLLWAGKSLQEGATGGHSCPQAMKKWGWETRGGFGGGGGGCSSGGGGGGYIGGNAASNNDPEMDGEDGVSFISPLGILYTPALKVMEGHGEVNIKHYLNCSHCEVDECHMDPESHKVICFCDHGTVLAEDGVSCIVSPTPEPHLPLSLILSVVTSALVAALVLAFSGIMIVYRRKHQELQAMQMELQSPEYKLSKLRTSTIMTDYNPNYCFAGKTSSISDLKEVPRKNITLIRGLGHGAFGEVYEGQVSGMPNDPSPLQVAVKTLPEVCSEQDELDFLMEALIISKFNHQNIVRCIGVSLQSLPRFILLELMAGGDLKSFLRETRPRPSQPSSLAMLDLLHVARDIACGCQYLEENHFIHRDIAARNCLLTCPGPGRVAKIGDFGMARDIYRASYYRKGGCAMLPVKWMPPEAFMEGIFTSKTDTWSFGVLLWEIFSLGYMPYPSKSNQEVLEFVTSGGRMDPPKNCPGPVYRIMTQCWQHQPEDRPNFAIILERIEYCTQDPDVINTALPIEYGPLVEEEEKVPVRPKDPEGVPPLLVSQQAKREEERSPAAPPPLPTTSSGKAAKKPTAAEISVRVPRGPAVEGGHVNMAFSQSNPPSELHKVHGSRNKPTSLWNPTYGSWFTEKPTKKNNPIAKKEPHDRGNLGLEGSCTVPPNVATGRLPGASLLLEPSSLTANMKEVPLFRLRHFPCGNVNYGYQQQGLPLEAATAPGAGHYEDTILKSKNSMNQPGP

Consider `CC[C@@H]1CNC(=O)c2cnn3ccc(nc23)N[C@H](C)c2cc(F)ccc2O1` [Compound 1, (7R,13R)-7-ethyl-11-fluoro-13-methyl-6,7,13,14-tetrahydro-1,15-ethenopyrazolo[4,3-f][1,4,8,10]benzoxatriazacyclotridecin-4(5H)-one], for which the GI50 at EML4-ALK Ba/F3 is 13.4 nM; on CD74-ROS1 Ba/F3, 0.2 nM. Also, the IC50 in experiment [1] was found to be 67.6 nM; in experiment [2] it was 0.2 nM; in experiment [3] it was 16.7 nM.
Consider `CC[C@@H]1COc2ccc(F)cc2[C@@H](C)Nc2ccn3ncc(c3n2)C(=O)N1` [Compound 2, (6R,13R)-6-ethyl-11-fluoro-13-methyl-6,7,13,14-tetrahydro-1,15-ethenopyrazolo[4,3-f][1,4,8,10]benzoxatriazacyclotridecin-4(5H)-one], for which the values for the GI50 on EML4-ALK Ba/F3 and at CD74-ROS1 Ba/F3 were 681 nM and 0.7 nM, respectively. The IC50 came to 956 nM in experiment [1], 6 nM in experiment [2] and 354 nM in experiment [3].
For the compound `CC[C@H]1CNC(=O)c2cnn3ccc(nc23)N[C@H](C)c2cc(F)ccc2O1` [Compound 3, (7S,13R)-7-ethyl-11-fluoro-13-methyl-6,7,13,14-tetrahydro-1,15-ethenopyrazolo[4,3-f][1,4,8,10]benzoxatriazacyclotridecin-4(5H)-one], the results for the GI50 on EML4-ALK Ba/F3 and on CD74-ROS1 Ba/F3 were 138 nM and 0.2 nM, respectively. Also, the IC50 was determined as 263 nM in experiment [1], 0.3 nM in experiment [2] and 83 nM in experiment [3].
In the case of `CC[C@H]1COc2ccc(F)cc2[C@@H](C)Nc2ccn3ncc(c3n2)C(=O)N1` [Compound 4, (6S,13R)-6-ethyl-11-fluoro-13-methyl-6,7,13,14-tetrahydro-1,15-ethenopyrazolo[4,3-f][1,4,8,10]benzoxatriazacyclotridecin-4(5H)-one], the GI50 was found to be 892 nM at EML4-ALK Ba/F3 and 0.2 nM at CD74-ROS1 Ba/F3. For the same compound, the IC50 was 1370 nM in experiment [1], 0.3 nM in experiment [2] and 1370 nM in experiment [3].
Turning to `C[C@H]1Nc2ccn3ncc(c3n2)C(=O)NC[C@H](CO)Oc2ccc(F)cc21` [Compound 5, (7R,13R)-11-fluoro-7-(hydroxymethyl)-13-methyl-6,7,13,14-tetrahydro-1,15-ethenopyrazolo[4,3-f][1,4,8,10]benzoxatriazacyclotridecin-4(5H)-one], the results for the GI50 on EML4-ALK Ba/F3 and on CD74-ROS1 Ba/F3 were 2030 nM and 27.9 nM, respectively. Moreover, the IC50 in experiment [1] was determined as 852 nM; in experiment [2] it was 16.5 nM; in experiment [3], 794 nM.
On to `C[C@H]1Nc2ccn3ncc(c3n2)C(=O)N[C@@H](CO)COc2ccc(F)cc21` [Compound 6, (6S,13R)-11-fluoro-6-(hydroxymethyl)-13-methyl-6,7,13,14-tetrahydro-1,15-ethenopyrazolo[4,3-f][1,4,8,10]benzoxatriazacyclotridecin-4(5H)-one], for which the GI50 turned out to be 116 nM at EML4-ALK Ba/F3 and 2.8 nM at CD74-ROS1 Ba/F3. For the same compound, the IC50 was found to be 164 nM in experiment [1], 0.5 nM in experiment [2] and 65 nM in experiment [3].
Regarding `C[C@H]1Nc2ccn3ncc(c3n2)C(=O)NC[C@@H](CO)Oc2ccc(F)cc21` [Compound 7, (7S,13R)-11-fluoro-7-(hydroxymethyl)-13-methyl-6,7,13,14-tetrahydro-1,15-ethenopyrazolo[4,3-f][1,4,8,10]benzoxatriazacyclotridecin-4(5H)-one], the GI50 was 715 nM on EML4-ALK Ba/F3 and 22.6 nM on CD74-ROS1 Ba/F3. Also, the IC50 turned out to be 190 nM in experiment [1], 16.8 nM in experiment [2] and 438 nM in experiment [3].
Regarding `O=C1NCCOc2ccc(F)cc2[C@@H](CCF)Nc2ccn3ncc1c3n2` [Compound 23, (13R)-11-fluoro-13-(2-fluoroethyl)-6,7,13,14-tetrahydro-1,15-ethenopyrazolo[4,3-f][1,4,8,10]benzoxatriazacyclotridecin-4(5H)-one], the GI50 on EML4-ALK Ba/F3 was 459 nM; on CD74-ROS1 Ba/F3, 5.1 nM. In addition, the values for the IC50 in experiment [1] and in experiment [2] were 236 nM and 1.3 nM, respectively.
Turning to `COC[C@@H]1CNC(=O)c2cnn3ccc(nc23)N[C@H](C)c2cc(F)ccc2O1` [Compound 25, (7S,13R)-11-fluoro-7-(methoxymethyl)-13-methyl-6,7,13,14-tetrahydro-1,15-ethenopyrazolo[4,3-f][1,4,8,10]benzoxatriazacyclotridecin-4(5H)-one], the GI50 at EML4-ALK Ba/F3 worked out at 88.5 nM. Further, the IC50 in experiment [1] is 134 nM; in experiment [2] it was 6.1 nM; in experiment [3], 166 nM.
Regarding `C[C@H]1Nc2ccn3ncc(c3n2)C(=O)NC[C@@H](CN(C)C)Oc2ccc(F)cc21` [Compound 55, (7S,13R)-7-[(dimethylamino)methyl]-11-fluoro-13-methyl-6,7,13,14-tetrahydro-1,15-ethenopyrazolo[4,3-f][1,4,8,10]benzoxatriazacyclotridecin-4(5H)-one], the GI50 at EML4-ALK Ba/F3 was determined as 709 nM. Moreover, the IC50 in experiment [1] turned out to be 300 nM; in experiment [2], 23.5 nM.
Taken in the same sequence, the figures for `C[C@H]1Nc2ccn3ncc(c3n2)C(=O)NC[C@@H](CN2CCCC2)Oc2ccc(F)cc21` [Compound 57, (7S,13R)-11-fluoro-13-methyl-7-[(pyrrolidin-1-yl)methyl]-6,7,13,14-tetrahydro-1,15-ethenopyrazolo[4,3-f][1,4,8,10]benzoxatriazacyclotridecin-4(5H)-one] were 665 nM, 132 nM and 70 nM.
The like results for `CC[C@@H]1CNC(=O)c2cnn3ccc(nc23)N[C@H](C)c2cc(F)cnc2O1` [Compound 58, (7R,13R)-7-ethyl-11-fluoro-13-methyl-6,7,13,14-tetrahydro-1,15-ethenopyrazolo[4,3-f]pyrido[3,2-l][1,4,8,10]oxatriazacyclotridecin-4(5H)-one] were, in that order, 31 nM, 174 nM and 0.2 nM.
For `C[C@@H]1Nc2ccn3ncc(c3n2)C(=O)NC[C@H](C)Oc2ncc(F)cc21` [Compound 59, (7S,13S)-11-fluoro-7,13-dimethyl-6,7,13,14-tetrahydro-1,15-ethenopyrazolo[4,3-f]pyrido[3,2-l][1,4,8,10]oxatriazacyclotridecin-4(5H)-one], the GI50 on EML4-ALK Ba/F3 came out at 2000 nM. Further, the IC50 in experiment [1] is 402 nM; in experiment [2], 5.5 nM.
On to `C[C@H]1CNC(=O)c2cnn3ccc(nc23)N[C@H](C)c2cc(F)cnc2O1` [Compound 60, (7S,13R)-11-fluoro-7,13-dimethyl-6,7,13,14-tetrahydro-1,15-ethenopyrazolo[4,3-f]pyrido[3,2-l][1,4,8,10]oxatriazacyclotridecin-4(5H)-one], for which the GI50 on EML4-ALK Ba/F3 is 218 nM. Also, the figures for the IC50 in experiment [1] and in experiment [2] were 30.3 nM and 0.35 nM, respectively.
For the compound `CNC(=O)C1Nc2ccn3ncc(c3n2)C(=O)NC[C@H](C)Oc2ccc(F)cc21` (stereo partly drawn) [Compound 61, (7S)-11-fluoro-N,7-dimethyl-4-oxo-4,5,6,7,13,14-hexahydro-1,15-ethenopyrazolo[4,3-f][1,4,8,10]benzoxatriazacyclotridecine-13-carboxamide], on EML4-ALK Ba/F3, the GI50 is 8000 nM. For the same compound, the IC50 in experiment [1] was 1070 nM; in experiment [2], 73.7 nM.
Taken in the same sequence, the figures for `C[C@H]1CNC(=O)c2cnn3ccc(nc23)NC(C(=O)N(C)C)c2cc(F)ccc2O1` (stereo partly drawn) [Compound 62, (7S)-11-fluoro-N,N,7-trimethyl-4-oxo-4,5,6,7,13,14-hexahydro-1,15-ethenopyrazolo[4,3-f][1,4,8,10]benzoxatriazacyclotridecine-13-carboxamide] were 3000 nM, 3570 nM and 112 nM.
